Laboratory results: the NIST ThermoML archive (doi:10.1021/acs.jced.8b00067)
Where “and” joins values, the source holds several entries; their conditions need not be identical. Identical values can stand only once.

How the values were obtained:
[1] = 101.3 kPa, Liquid, Vibrating tube method
[2] = xn = mol fraction of the nth substance listed; settings: 101.3 kPa, Liquid, Vibrating tube method

ClCCCl [1,2-dichloroethane]
[1]
Settings	mass density
288.15 K	1260.35 kg/m3
298.15 K	1245.75 kg/m3 and 1245.76 kg/m3
308.15 K	1231.16 kg/m3
318.15 K	1216.56 kg/m3

ClCCCl [1,2-dichloroethane] + C1COCCO1
mass density [kg/m3], [2]
Settings	288.15 K	298.15 K	308.15 K	318.15 K
x2 = 0	1260.35	1245.75	1231.16	1216.56
x2 = 0.05	1247.73	1233.53	1219.2	1204.74
x2 = 0.15	1223.15	1209.44	1195.6	1181.63
x2 = 0.25	1199.18	1185.91	1172.52	1159.01
x2 = 0.35	1175.98	1163.09	1150.11	1137.01
x2 = 0.45	1153.2	1140.69	1128.08	1115.36
x2 = 0.5	1142.13	1129.79	1117.34	1104.79
x2 = 0.55	1131.22	1119.02	1106.74	1094.34
x2 = 0.65	1109.63	1097.72	1085.72	1073.62
x2 = 0.75	1088.81	1077.13	1065.38	1053.55
x2 = 0.85	1068.59	1057.12	1045.59	1033.98
x2 = 0.95	1048.8	1037.49	1026.13	1014.72

ClCCCl [1,2-dichloroethane] + CC(C)O
mass density [kg/m3], [2]
Settings	288.15 K	298.15 K	308.15 K	318.15 K
x2 = 0	1260.35	1245.75	1231.16	1216.56
x2 = 0.05	1235.77	1221.42	1206.94	1192.32
x2 = 0.15	1188.35	1174.26	1160	1145.58
x2 = 0.25	1141.45	1127.77	1113.89	1099.81
x2 = 0.35	1094.84	1081.66	1068.25	1054.61
x2 = 0.45	1048.69	1036.08	1023.22	1010.09
x2 = 0.5	1025.43	1013.12	1000.56	987.72
x2 = 0.55	1001.94	989.96	977.71	965.17
x2 = 0.65	955.61	944.31	932.73	920.85
x2 = 0.75	908.94	898.38	887.54	876.36
x2 = 0.849	862.18	852.45	842.41	832.03
x2 = 0.949	814.66	805.84	796.72	787.26
x2 = 0.95	814.18	805.36	796.25	786.79

ClCCCl [1,2-dichloroethane] + CCCO
mass density, [2]
Settings	288.15 K	298.15 K	308.15 K	318.15 K
x2 = 0	1260.35 kg/m3	1245.75 kg/m3	1231.16 kg/m3	1216.56 kg/m3
x2 = 0.026	1248.39 kg/m3	1234.01 kg/m3	1219.5 kg/m3	1204.86 kg/m3
x2 = 0.05	1237.53 kg/m3 and 1237.37 kg/m3	1223.22 kg/m3 and 1223.08 kg/m3	1208.79 kg/m3 and 1208.64 kg/m3	1194.22 kg/m3 and 1194.08 kg/m3
x2 = 0.1	1215.38 kg/m3	1201.26 kg/m3	1187.01 kg/m3	1172.6 kg/m3
x2 = 0.122	1205.69 kg/m3	1191.67 kg/m3	1177.5 kg/m3	1163.18 kg/m3
x2 = 0.149	1193.33 kg/m3	1179.47 kg/m3	1165.44 kg/m3	1151.24 kg/m3
x2 = 0.25	1149.08 kg/m3	1135.78 kg/m3	1122.28 kg/m3	1108.59 kg/m3
x2 = 0.35	1104.87 kg/m3	1092.18 kg/m3	1079.29 kg/m3	1066.19 kg/m3
x2 = 0.45	1060.3 kg/m3	1048.27 kg/m3	1036.04 kg/m3	1023.57 kg/m3
x2 = 0.55	1015.43 kg/m3	1004.09 kg/m3	992.55 kg/m3	980.78 kg/m3
x2 = 0.645	972.3 kg/m3	961.66 kg/m3	950.81 kg/m3	939.73 kg/m3
x2 = 0.75	924.58 kg/m3	914.71 kg/m3	904.65 kg/m3	894.38 kg/m3
x2 = 0.85	878.59 kg/m3	869.49 kg/m3	860.21 kg/m3	850.73 kg/m3
x2 = 0.899	855.66 kg/m3	846.93 kg/m3	838.05 kg/m3	828.97 kg/m3
x2 = 0.95	831.69 kg/m3	823.36 kg/m3	814.89 kg/m3	806.24 kg/m3
x2 = 0.974	820.39 kg/m3	812.24 kg/m3	803.95 kg/m3	795.49 kg/m3
x2 = 0.975	819.73 kg/m3	811.6 kg/m3	803.33 kg/m3	794.89 kg/m3

C1COCCO1 [1,4-dioxane]
[1]
Settings	mass density [kg/m3]
288.15 K	1039.12
298.15 K	1027.84
308.15 K	1016.57
318.15 K	1005.29

C1COCCO1 [1,4-dioxane] + CC(C)O
mass density [kg/m3], [2]
Settings	288.15 K	298.15 K	308.15 K	318.15 K
x1 = 0.05	802.95	794.39	785.56	776.41
x1 = 0.15	829.25	820.23	810.98	801.46
x1 = 0.25	855.23	845.83	836.22	826.38
x1 = 0.35	880.71	870.97	861.05	850.93
x1 = 0.449	905.45	895.43	885.24	874.87
x1 = 0.5	918.21	908.04	897.73	887.25
x1 = 0.55	930.47	920.18	909.74	899.16
x1 = 0.651	955.14	944.61	933.97	923.2
x1 = 0.75	979.12	968.37	957.54	946.6
x1 = 0.85	1003.42	992.5	981.49	970.39
x1 = 0.95	1027.3	1016.17	1004.99	993.74
x1 = 1	1039.12	1027.84	1016.57	1005.29

C1COCCO1 [1,4-dioxane] + CCCO
mass density, [2]
Settings	288.15 K	298.15 K	308.15 K	318.15 K
x1 = 0.05	820.78 kg/m3	812.62 kg/m3	804.33 kg/m3	795.88 kg/m3
x1 = 0.15	846.12 kg/m3	837.54 kg/m3	828.82 kg/m3	819.95 kg/m3
x1 = 0.249	870.65 kg/m3	861.62 kg/m3	852.49 kg/m3	843.22 kg/m3
x1 = 0.35	894.72 kg/m3 and 894.75 kg/m3	885.38 kg/m3 and 885.41 kg/m3	875.91 kg/m3 and 875.94 kg/m3	866.3 kg/m3 and 866.33 kg/m3
x1 = 0.45	918.23 kg/m3	908.54 kg/m3	898.73 kg/m3	888.78 kg/m3
x1 = 0.496	928.74 kg/m3	918.89 kg/m3	908.94 kg/m3	898.85 kg/m3
x1 = 0.55	941.07 kg/m3 and 941.11 kg/m3	931.06 kg/m3 and 931.09 kg/m3	920.95 kg/m3 and 920.97 kg/m3	910.71 kg/m3 and 910.73 kg/m3
x1 = 0.65	963.51 kg/m3	953.2 kg/m3	942.79 kg/m3	932.28 kg/m3
x1 = 0.75	985.54 kg/m3 and 985.58 kg/m3	974.94 kg/m3 and 974.98 kg/m3	964.26 kg/m3 and 964.29 kg/m3	953.5 kg/m3 and 953.51 kg/m3
x1 = 0.849	1006.97 kg/m3	996.12 kg/m3	985.2 kg/m3	974.19 kg/m3
x1 = 0.948	1028.13 kg/m3	1017.05 kg/m3	1005.9 kg/m3	994.68 kg/m3
x1 = 0.95	1028.45 kg/m3	1017.36 kg/m3	1006.21 kg/m3	995 kg/m3
x1 = 1	1039.12 kg/m3	1027.84 kg/m3	1016.57 kg/m3	1005.29 kg/m3

C1COCCO1 [1,4-dioxane] + ClCCCl
[2], x1 = 1
Settings	mass density [kg/m3]
288.15 K	1039.12
298.15 K	1027.84
308.15 K	1016.57
318.15 K	1005.29

CCCO [propan-1-ol]
[1]
Settings	mass density [kg/m3]
288.15 K	807.86
298.15 K	799.78
308.15 K	791.71
318.15 K	783.64

CCCO [propan-1-ol] + C1COCCO1
[2], x2 = 0
Settings	mass density [kg/m3]
288.15 K	807.86
298.15 K	799.78
308.15 K	791.71
318.15 K	783.64

CCCO [propan-1-ol] + ClCCCl
[2], x1 = 1
Settings	mass density [kg/m3]
288.15 K	807.86
298.15 K	799.78
308.15 K	791.71
318.15 K	783.64

CC(C)O [propan-2-ol]
[1]
Settings	mass density [kg/m3]
288.15 K	789.68
298.15 K	781.08
308.15 K	772.48
318.15 K	763.88

CC(C)O [propan-2-ol] + C1COCCO1
[2], x2 = 0
Settings	mass density [kg/m3]
288.15 K	789.68
298.15 K	781.08
308.15 K	772.48
318.15 K	763.88

CC(C)O [propan-2-ol] + ClCCCl
[2], x1 = 1
Settings	mass density [kg/m3]
288.15 K	789.68
298.15 K	781.08
308.15 K	772.48
318.15 K	763.88
